Source: PMC5524190 (Biochemistry, 2016)

Molecular target: BaIMPDHΔL
Assay type: biochemical, Bacillus anthracis
Conditions: read-out: k−7/k7, equilibrium dissociation constant of NAD+ substrate inhibition

Question: Which Kd does the source give for `NC(=O)c1ccc[n+]([C@@H]2O[C@H](COP(=O)([O-])OP(=O)(O)OC[C@H]3O[C@@H](n4cnc5c(N)ncnc54)[C@H](O)[C@@H]3O)[C@@H](O)[C@H]2O)c1` [NAD^+] here?
Answer: 5.5 mM
